Test results reported in patent publication US20220226321A1, “INHIBITOR OF MNK FOR THE TREATMENT OF NEUROPATHIC PAIN” (Board of Regents, The University of Texas System, priority 2019, published 2022).

System: Nav1.8-positive nociceptors
Type: in vivo, mouse
Details: Nav1.8-TRAP after paclitaxel

SMILES: CC(=O)O[C@H]1C(=O)[C@@]2(C)[C@H]([C@H](OC(=O)c3ccccc3)[C@]3(O)C[C@H](OC(=O)[C@H](O)[C@@H](NC(=O)c4ccccc4)c4ccccc4)C(C)=C1C3(C)C)[C@]1(OC(C)=O)CO[C@@H]1C[C@@H]2O [paclitaxel]
- Log2FC 0st4: 1.718
- Log2FC 2010107E04Rik: 2.12
- Log2FC 2310039H08Rik: 5.143
- Log2FC 2700094K13R1k: 3.302
- Log2FC 4833439L19R1k: 2.132
- Log2FC Aars2: 2.418
- Log2FC Acadvl: 1.927
- Log2FC Acap3: 3.498
- Log2FC Acp1: 1.942
- Log2FC Adamts8: 3.561
- Log2FC Adcy6: 2.711
- Log2FC Alkbh3: 6.476
- Log2FC Amacr: 2.955
- Log2FC Amd1: 3.371
- Log2FC Amer2: 2.706
- Log2FC Anapc13: 3.575
- Log2FC AngptI2: 2.189
- Log2FC Ankrd13b: 2.385
- Log2FC Anxa5: 1.873
- Log2FC Ap2m1: 1.802
- Log2FC Apip: 3.746
- Log2FC Arl3: 1.891
- Log2FC Arl6: 2.816
- Log2FC Arpc1b: 2.309
- Log2FC Asna1: 2.939
- Log2FC Atg4c: 2.347
- Log2FC Atp5c1: 2.208
- Log2FC Atp5j2: 1.988
- Log2FC Avpi1: 2.241
- Log2FC Bcl3: 1.89
- Log2FC Bloc1s1: 1.944
- Log2FC Btbd2: 1.76
- Log2FC C77080: 2.169
- Log2FC Calca: 1.643
- Log2FC Camk1: 1.856
- Log2FC Caml: 1.865
- Log2FC Card19: 1.753
- Log2FC Casp6: 5.72
- Log2FC Ccm2: 1.643
- Log2FC Cct3: 1.638
- Log2FC Cd1d1: 3.345
- Log2FC Cdc42ep3: 3.249
- Log2FC Cdpf1: 1.815
- Log2FC Cenpf: 2.902
- Log2FC Cfap206: 3.055
- Log2FC Cfd: 2.201
- Log2FC Chchd10: 3.153
- Log2FC Chp1: 1.916
- Log2FC Cisd2: 2.375
- Log2FC Cln5: 3.447
- Log2FC Cnih4: 1.926
- Log2FC Cnrip1: 2.136
- Log2FC Cntfr: 2.495
- Log2FC Coq3: 4.105
- Log2FC Cox6b1: 1.818
- Log2FC Cox7a2: 2.17
- Log2FC Cox7b: 2.566
- Log2FC Cox18: 2.806
- Log2FC Crlf2: 3.214
- Log2FC DIg2: 2.734
- Log2FC Dad1: 2.457
- Log2FC Ddt: 1.823
- Log2FC Ddx59: 3.577
- Log2FC Dhrs1: 1.833
- Log2FC Dnajb1: 1.888
- Log2FC Dnajc5: 1.672
- Log2FC Dnal4: 3.156
- Log2FC Dolk: 3.023
- Log2FC Dpm3: 2.927
- Log2FC Dzank1: 2.226
- Log2FC Edfl: 2.362
- Log2FC Efccl: 3.201
- Log2FC Eif3l: 1.622
- Log2FC Eif4a3: 2.269
- Log2FC Elk4: 1.928
- Log2FC Emd: 2.135
- Log2FC Endov: 2.652
- Log2FC Esd: 1.658
- Log2FC Esyt1: 3.657
- Log2FC Fabp7: 2.365
- Log2FC Fads3: 2.619
- Log2FC Fam89a: 3.216
- Log2FC Fam132a: 3.453
- Log2FC Fam172a: 2.094
- Log2FC Fam189b: 1.8
- Log2FC Fbxo2: 2.965
- Log2FC Fkbp1b: 1.714
- Log2FC Fm43b: 4.132
- Log2FC Fsd1: 3.044
- Log2FC Fxyd2: 1.653
- Log2FC Gdf1: 2.419
- Log2FC Gla: 1.793
- Log2FC Gm20721: 2.093
- Log2FC Gmppa: 2.033
- Log2FC Gpr75: 3.81
- Log2FC Gstm1: 3.155
- Log2FC H2-T23: 3.904
- Log2FC H2afj: 2.76
- Log2FC H2afz: 1.717
- Log2FC Hagh: 3.067
- Log2FC Hhatl: 3.915
- Log2FC Hist3h2ba: 2.223
- Log2FC Hspa8: 1.666
- Log2FC Idh3b: 1.905
- Log2FC Ift122: 2.378
- Log2FC Igtp: 2.41
- Log2FC Kcnip2: 2.308
- Log2FC Kcnip4: 1.68
- Log2FC Krt28: 5.481
- Log2FC L3mbt12: 1.691
- Log2FC Lamtor5: 1.975
- Log2FC Lcmt1: 1.712
- Log2FC Lingo2: 2.247
- Log2FC Litaf: 2.888
- Log2FC Lrrc55: 5.433
- Log2FC Lxn: 2.119
- Log2FC Lyrm2: 2.832
- Log2FC M pl36: 2.805
- Log2FC Mok: 7.257
- Log2FC Mpp4: 3.465
- Log2FC Mpv17: 1.73
- Log2FC Mrpl18: 1.683
- Log2FC Mrpl34: 2.378
- Log2FC Mrpl42: 1.785
- Log2FC Mrps36: 2.585
- Log2FC Mtor: 1.973
